Measurements reported in PubChem BioAssay AID330 (DTP/NCI, 2004).
Where “and” joins values, the source holds several entries; their conditions need not be identical. Identical values can stand only once. Inconclusive results and toxic doses are left out.

System: P388 leukemia ip, CD2F1 mice, survival T/C
Assay: NCI In Vivo Anticancer Drug Screen. Data for tumor model P388 Leukemia (intraperitoneal) in CD2F1 (CDF1) mice
Conditions: endpoint: median survival time, higher = longer survival
Method in brief: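 Mice carrying the transplanted tumor received test compound or vehicle. Survival was recorded in each group, and the value is the treated-group measurement divided by that of the vehicle-treated control group.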

[1] = dose: 50.0 mg/kg/injection, schedule: Q01DX005 (ip), vehicle: saline with Tween-80
[2] = dose: 100.0 mg/kg/injection, schedule: Q01DX005 (ip), vehicle: saline with Tween-80
[3] = dose: 200.0 mg/kg/injection, schedule: Q01DX005 (ip), vehicle: saline with Tween-80
[4] = dose: 50.0 mg/kg/injection, schedule: Q01DX009 (ip), vehicle: saline with Tween-80
[5] = dose: 100.0 mg/kg/injection, schedule: Q01DX009 (ip), vehicle: saline with Tween-80
[6] = dose: 200.0 mg/kg/injection, schedule: Q01DX009 (ip), vehicle: saline with Tween-80
[7] = dose: 12.5 mg/kg/injection, schedule: Q04DX003 (ip), vehicle: saline with Tween-80

Cc1cc(NC(=O)c2ccc(C(=O)Nc3ccc(N=Nc4cc(S(=O)(=O)O)c5cccc(S(=O)(=O)O)c5c4)c(C)c3)cc2)ccc1N=Nc1cc(S(=O)(=O)O)c2cccc(S(=O)(=O)O)c2c1
T/C [1]: 94 % of control | T/C [2]: 93 % of control | T/C [3]: 98 % of control

COc1cc(C(=O)OC(C)CC2(c3ccccc3)C(=O)NC(=O)NC2=O)cc(OC)c1OC (configuration not stated)
T/C [4]: 90 % of control | T/C [5]: 90 % of control

Cc1ccc(S(=O)(=O)NC(=O)c2ccccc2)cc1
T/C [5]: 100 % of control | T/C [6]: 100 % of control | T/C (dose: 400.0 mg/kg/injection, schedule: Q01DX009 (ip), vehicle: saline with Tween-80): 91 % of control

N#CC(C#N)=CN1CCCCCC1
T/C (dose: 6.25 mg/kg/injection, schedule: Q04DX003 (ip), vehicle: saline with Tween-80): 104 % of control | T/C [7]: 100 % of control

COC(=O)CC12CC3(C)CC(C)(C1)CC(CC(=O)OC)(C3)C2
T/C [4]: 99 % of control | T/C [5]: 99 % of control and 108 % of control | T/C [6]: 103 % of control and 113 % of control

CC1=NCC(=O)O1
T/C (dose: 50.0 mg/kg/injection, schedule: Q01DX005 (ip), vehicle: Klucel (hydroxypropylcellulose) (HPC)): 98 % of control | T/C (dose: 100.0 mg/kg/injection, schedule: Q01DX005 (ip), vehicle: Klucel (hydroxypropylcellulose) (HPC)): 98 % of control | T/C (dose: 200.0 mg/kg/injection, schedule: Q01DX005 (ip), vehicle: Klucel (hydroxypropylcellulose) (HPC)): 102 % of control

CCCCCCC(=O)CCCCCCCCCCCCC(=O)OC
T/C [7]: 100 % of control | T/C (dose: 25.0 mg/kg/injection, schedule: Q04DX003 (ip), vehicle: saline with Tween-80): 100 % of control | T/C (dose: 50.0 mg/kg/injection, schedule: Q04DX003 (ip), vehicle: saline with Tween-80): 100 % of control

Nc1cc2c(c[n+](CCCCCCCCC[n+]3cc4c5ccccc5c(N)cc4c4ccccc43)c3ccccc23)c2ccccc12
T/C (dose: 0.39 mg/kg/injection, schedule: Q04DX003 (ip), vehicle: other): 150 % of control | T/C (dose: 0.78 mg/kg/injection, schedule: Q04DX003 (ip), vehicle: other): 173 % of control | T/C (dose: 1.56 mg/kg/injection, schedule: Q04DX003 (ip), vehicle: other): 162 % of control | T/C (dose: 3.13 mg/kg/injection, schedule: Q04DX003 (ip), vehicle: other): 173 % of control | T/C (dose: 6.25 mg/kg/injection, schedule: Q04DX003 (ip), vehicle: other): 169 % of control and 191 % of control | T/C (dose: 12.5 mg/kg/injection, schedule: Q04DX003 (ip), vehicle: other): 117 % of control and 95 % of control

CN(c1ccccc1)c1c2c(oc(=O)c1Cl)CCSC2
T/C (dose: 100.0 mg/kg/injection, schedule: Q04DX003 (ip), vehicle: saline with Tween-80): 94 % of control | T/C (dose: 200.0 mg/kg/injection, schedule: Q04DX003 (ip), vehicle: saline with Tween-80): 98 % of control | T/C (dose: 400.0 mg/kg/injection, schedule: Q04DX003 (ip), vehicle: saline with Tween-80): 91 % of control

Nc1ccccc1C(=O)NCCc1c[nH]c2ccccc12
T/C [1]: 99 % of control | T/C [2]: 107 % of control | T/C [3]: 107 % of control

Nc1c(S(=O)(=O)O)cc(Nc2cccc(CO)c2)c2c1C(=O)c1ccccc1C2=O
T/C (dose: 12.5 mg/kg/injection, schedule: Q01DX001 (ip), vehicle: saline): 99 % of control | T/C (dose: 25.0 mg/kg/injection, schedule: Q01DX001 (ip), vehicle: saline): 99 % of control | T/C (dose: 50.0 mg/kg/injection, schedule: Q01DX001 (ip), vehicle: saline): 98 % of control | T/C (dose: 100.0 mg/kg/injection, schedule: Q01DX001 (ip), vehicle: saline): 106 % of control

C=C(C)CBr
T/C (dose: 60.0 mg/kg/injection, schedule: Q01DX005 (ip), vehicle: saline with Tween-80): 100 % of control | T/C (dose: 120.0 mg/kg/injection, schedule: Q01DX005 (ip), vehicle: saline with Tween-80): 100 % of control | T/C (dose: 240.0 mg/kg/injection, schedule: Q01DX005 (ip), vehicle: saline with Tween-80): 100 % of control

O=c1c2ccccc2nc2n1CCc1c-2[nH]c2ccccc12
T/C (dose: 3.75 mg/kg/injection, schedule: Q01DX009 (ip), vehicle: saline with Tween-80): 93 % of control | T/C (dose: 7.5 mg/kg/injection, schedule: Q01DX009 (ip), vehicle: saline with Tween-80): 98 % of control | T/C (dose: 15.0 mg/kg/injection, schedule: Q01DX009 (ip), vehicle: saline with Tween-80): 93 % of control

CCN(CC)c1ccc(/C=N\NC(=O)C(=O)N/N=C\c2ccc(N(CC)CC)cc2)cc1
T/C [1]: 87 % of control | T/C [2]: 87 % of control | T/C [3]: 89 % of control

O=CNNc1nn2cnnc2c2ccccc12
T/C (dose: 50.0 mg/kg/injection, schedule: Q01DX009 (ip), vehicle: saline): 97 % of control | T/C (dose: 100.0 mg/kg/injection, schedule: Q01DX009 (ip), vehicle: saline): 94 % of control | T/C (dose: 200.0 mg/kg/injection, schedule: Q01DX009 (ip), vehicle: saline): 102 % of control
